Patent US20240417735A1, “ORAL CODELIVERY OF 5-FLUOREURACIL AND Bcl2 siRNA TREATING STOMACH CANCER” (Board of Regents, The University of Texas System, priority 2023, published 2024)

Experiments:
[1] = system: stomach cancer mice model; test: H&E histology of stomach; type: in vivo, C57BL/6 mice; settings: 10× magnification, whole tumor area
Method: A stomach cancer mice model was developed by feeding N-methyl-N-nitrosourea (NMNU) with water (IACUC protocol no A-201019-A). The 6-week-old C57BL/6 mice were kept in a 12 hr light-12 hr dark cycle. The mice had unprotected access to food and water. NMNU was dissolved in distilled water available ad libitum, freshly prepared three times per week. The mice received 240 ppm NMNU in the drinking water over 5 weeks (every other week). Five weeks after NMNU administration, the mice were ready for the experiment, as the method was reported elsewhere. A total of 30 stomach cancer mice were prepared and divided randomly into […]—no treatment (control), 5FU, BG/5FU, siRNA, BG/siRNA, and BG/5FU/siRNA. Another group of healthy mice were used as a negative control without any treatment. To investigate therapeutic feasibility, 5FU (10 mg/kg) and siRNA (100 nM) was administered either orally (PO) or intravenously (IV). All the formulations were freshly prepared prior to administration. Formulations were administered orally on every 3rd day for the subsequent 5 cycles over 15 days. The animals were sacrificed 72 hr after the last treatment followed by the organ harvest and blood collection for further studies. Immediately after harvesting the size and weight of the stomach and intestine were measured. […]

[2] = system: advanced colorectal cancer; settings: cited from earlier work
[3] = system: Bcl2; test: Western blotting of Bcl2 in stomach tissue lysate; type: in vivo, C57BL/6 mice; settings: healthy = 1
Method: (§1) A stomach cancer mice model was developed by feeding N-methyl-N-nitrosourea (NMNU) with water (IACUC protocol no A-201019-A). The 6-week-old C57BL/6 mice were kept in a 12 hr light-12 hr dark cycle. The mice had unprotected access to food and water. NMNU was dissolved in distilled water available ad libitum, freshly prepared three times per week. The mice received 240 ppm NMNU in the drinking water over 5 weeks (every other week). Five weeks after NMNU administration, the mice were ready for the experiment, as the method was reported elsewhere. A total of 30 stomach cancer mice were prepared and divided randomly into […]—no treatment (control), 5FU, BG/5FU, siRNA, BG/siRNA, and BG/5FU/siRNA. Another group of healthy mice were used as a negative control without any treatment. To investigate therapeutic feasibility, 5FU (10 mg/kg) and siRNA (100 nM) was administered either orally (PO) or intravenously (IV). All the formulations were freshly prepared prior to administration. […] Immediately after harvesting the size and weight of the stomach and intestine were measured.
The fresh frozen stomach tissue was homogenized using RIPA buffer with freshly prepared protease inhibitor in it. […] The supernatant was collected, and the total protein content was determined using Bradford's assay (Sigma-Aldrich). […] The band intensities were calculated using ImageJ software.

[4] = system: stomach cancer mice model; test: TUNEL assay of apoptosis in stomach tissue of stomach cancer mice; type: in vivo, C57BL/6 mice; settings: relative to untreated control; oral, 5 doses every 3rd day
Method: as §1, with “treatment.” for “treatment. To investigate therapeutic feasibility, 5FU (10 mg/kg) and siRNA (100 nM) was administered either orally (PO) or intravenously (IV). All the formulations were freshly prepared prior to administration.”
A TUNEL assay was conducted to investigate the apoptosis within the tissue from the stomach of both healthy, untreated cancer, and treated cancer mice. […] Apoptosis was quantified by the mean fluorescent intensity and compared with healthy control and untreated control. The degree of apoptosis was calculated as 49, 107, 38, 62, and 131% for the 5FU, BG/5FU, siRNA, BG/siRNA, and BG/5FU/siRNA group relative to untreated control, respectively.

[5] = system: Bcl2; test: Immunohistochemistry/immunofluorescence of Bcl2 in stomach sections; type: in vivo, C57BL/6 mice; settings: anti-Bcl2 positive area vs whole section stained with DAPI
Method: as §1, with “treatment.” for “treatment. To investigate therapeutic feasibility, 5FU (10 mg/kg) and siRNA (100 nM) was administered either orally (PO) or intravenously (IV). All the formulations were freshly prepared prior to administration.”, “measured. […]” for “measured.”
The stomach tissue was also utilized to analysis Bcl2 protein expression using immunohistochemistry (IHC). The anti-Bcl2 positive area was quantified in comparison to the whole tissue section stained with DAPI. […] To measure the relative expression of Bcl2 on the tissue section the data was calculated and compared with the stomach tissue collected from the healthy mice, where Bcl2 expression in healthy mice was considered as 100% (FIG. 5B). […]

[6] = system: Ki67; test: Immunofluorescence of Ki67 in stomach sections; type: in vivo, C57BL/6 mice; settings: vs whole tissue section DAPI stained
Method: as §1, with “treatment.” for “treatment. To investigate therapeutic feasibility, 5FU (10 mg/kg) and siRNA (100 nM) was administered either orally (PO) or intravenously (IV). All the formulations were freshly prepared prior to administration.”, “measured. […]” for “measured.”
Cell proliferation marker was measured by immunofluorescence assay to evaluate the antitumor effect of the formulations. […] The protein expression was quantified from immunofluorescence images. The area with Ki67 positive cells was measured in compared to the whole tissue section with DAPI stained. The area (%) of healthy, untreated, 5FU, BG/5FU, siRNA, BG/siRNA, and BG/5FU/siRNA was measured as 0.16%, 0.27%, 0.54%, 0.52%, 0.38%, 0.29%, and 0.03%, respectively. […]

[7] = Ex vivo diffusion study in porcine intestine lumen; type: in vitro ADME; settings: for distribution in intestine layers (fluorescence): with BG
Excerpt: The mucoadhesiveness and intestinal transportation of hydrophobic small molecule were further confirmed by an ex vivo diffusion study in a porcine intestine lumen. As the mucous layer is a barrier for hydrophobic molecules, to check how it crosses through the epithelial layer with assistance of BG we have used coumarin-6, a small molecule hydrophobic fluorescent dye with similar chemical and physical properties (molecular weight and hydrophobicity) as 5FU, for ease of visualization and detection purpose. […] The same tissue was subjected to be observed under a ChemiDoc imager to capture the fluorescence signal within the cross-sectioned of the intestinal lumen and similar result was observed. With time (30 min, 2 hr, and 12 hr) more coumarin-6 were distributed throughout the intestine which is an indication and confirmation of BG's ability to facilitate intestinal transportation of hydrophobic payload (FIG. 2C).

| Compound | tumor in stomach by H&E [1] | treatment response rate [2] | Relative expression of Bcl2 (WB) [3] | degree of apoptosis (mean fluorescent intensity) [4] | area percentage of Bcl2 antibodies [5] | area of Ki67 positive cells [6] | distribution in intestine layers (fluorescence) ([7]; 2nd hr) | distribution in intestine layers (fluorescence) ([7]; 12th hr) | diffusion through the intestinal layer ([7]; without BG) |
| --- | --- | --- | --- | --- | --- | --- | --- | --- | --- |
| O=c1[nH]cc(F)c(=O)[nH]1 [5FU, 5-fluoreuracil] | tumor region got significantly reduced | 10-15% | 1.24±0.11 | 49% | 1.22% | 0.54% | – | – | – |
| CCN(CC)c1ccc2cc(-c3nc4ccccc4s3)c(=O)oc2c1 [coumarin-6, Coumarin 6] | – | – | – | – | – | – | observed within deeper layers of the intestine | incorporates evenly across the layers of the intestine | not able to diffuse through the intestinal layer |
